Laboratory results from patent US9695155B2, “Herbicidal substituted pyrimidinyloxy benzene compounds” (E. I. DU PONT DE NEMOURS AND COMPANY, priority 2013, dated 2017).

Tests used:
rice = assay: Test B flooded paddy test; type: in vivo, Oryza sativa; conditions: Flood, 250 g ai/ha; 0 to 100 scale where 0 is no effect and 100 is complete control
Summary of the method: (§1)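 Plants were grown to the 2-leaf stage, then pots were flooded to 3 cm above the soil and compounds were applied directly into the paddy water. That depth was held throughout, and after 13 to 15 days in the greenhouse injury was rated visually against controls on a 0–100 scale (0 no effect, 100 complete control).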

barnyardgrass [1] = assay: Test B flooded paddy test; type: in vivo, Echinochloa crus-galli; conditions: Flood, 250 g ai/ha; 0 to 100 scale where 0 is no effect and 100 is complete control
Summary of the method: as §1

wheat [2] = assay: Test A preemergence; type: in vivo, Triticum aestivum; conditions: for Wheat plant response rating (0 to 100 scale): 125 g ai/ha; for Wheat plant response rating: 500 g ai/ha, 0 to 100 scale where 0 is no effect and 100 is complete control
Summary of the method: (§2)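 Greenhouse pot test, loam/sand soil. Formulation: non-phytotoxic solvent mix plus surfactant. Pre: directed spray onto soil after sowing. Post: plants at 1–2 leaf, 2–10 cm. Rated visually vs untreated controls at ~10 d, 0 (no effect) to 100 (complete control).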

velvetleaf [3] = assay: Test A postemergence; type: in vivo, Abutilon theophrasti; conditions: 0 to 100 scale where 0 is no effect and 100 is complete control; for Velvetleaf plant response rating: 125 g ai/ha; for Plant response rating, Velvetleaf: 500 g ai/ha
Summary of the method: as §2

giant foxtail [4] = assay: Test A preemergence; type: in vivo, Setaria faberii; conditions: 0 to 100 scale where 0 is no effect and 100 is complete control; for Plant response rating, Foxtail, Giant: 125 g ai/ha; for Foxtail, Giant plant response rating: 500 g ai/ha
Summary of the method: as §2

morningglory [5] = assay: Test A postemergence; type: in vivo, Ipomoea spp.; conditions: 0 to 100 scale where 0 is no effect and 100 is complete control; for Morningglory plant response rating: 125 g ai/ha; for Plant response rating, Morningglory: 500 g ai/ha
Summary of the method: as §2

barnyardgrass [6] = assay: Test A postemergence; type: in vivo, Echinochloa crus-galli; conditions: 0 to 100 scale where 0 is no effect and 100 is complete control; for Barnyardgrass plant response rating: 125 g ai/ha; for Plant response rating, Barnyardgrass: 500 g ai/ha
Summary of the method: as §2

barnyardgrass [7] = assay: Test A preemergence; type: in vivo, Echinochloa crus-galli; conditions: 0 to 100 scale where 0 is no effect and 100 is complete control; for Plant response rating, Barnyardgrass: 125 g ai/ha; for Barnyardgrass plant response rating: 500 g ai/ha
Summary of the method: as §2

corn [8] = assay: Test A preemergence; type: in vivo, Zea mays; conditions: 0 to 100 scale where 0 is no effect and 100 is complete control; for Plant response rating, Corn: 125 g ai/ha; for Corn plant response rating: 500 g ai/ha
Summary of the method: as §2

sedge, umbrella = assay: Test B flooded paddy test; type: in vivo, Cyperus difformis; conditions: Flood, 250 g ai/ha; 0 to 100 scale where 0 is no effect and 100 is complete control
Summary of the method: as §1

pigweed [9] = assay: Test A postemergence; type: in vivo, Amaranthus retroflexus; conditions: 0 to 100 scale where 0 is no effect and 100 is complete control; for Pigweed plant response rating: 125 g ai/ha; for Plant response rating, Pigweed: 500 g ai/ha
Summary of the method: as §2

corn [10] = assay: Test A postemergence; type: in vivo, Zea mays; conditions: 0 to 100 scale where 0 is no effect and 100 is complete control; for Corn plant response rating: 125 g ai/ha; for Plant response rating, Corn: 500 g ai/ha
Summary of the method: as §2

large (Lg) crabgrass [11] = assay: Test A postemergence; type: in vivo, Digitaria sanguinalis; conditions: 0 to 100 scale where 0 is no effect and 100 is complete control; for Crabgrass, Large plant response rating: 125 g ai/ha; for Plant response rating, Crabgrass, Large: 500 g ai/ha
Summary of the method: as §2

morningglory [12] = assay: Test A preemergence; type: in vivo, Ipomoea spp.; conditions: for Morningglory plant response rating (0 to 100 scale): 125 g ai/ha; for Morningglory plant response rating: 500 g ai/ha, 0 to 100 scale where 0 is no effect and 100 is complete control
Summary of the method: as §2

large (Lg) crabgrass [13] = assay: Test A preemergence; type: in vivo, Digitaria sanguinalis; conditions: 0 to 100 scale where 0 is no effect and 100 is complete control; for Plant response rating, Crabgrass, Large: 125 g ai/ha; for Crabgrass, Large plant response rating: 500 g ai/ha
Summary of the method: as §2

wheat [14] = assay: Test A postemergence; type: in vivo, Triticum aestivum; conditions: 0 to 100 scale where 0 is no effect and 100 is complete control; for Wheat plant response rating: 125 g ai/ha; for Plant response rating, Wheat: 500 g ai/ha
Summary of the method: as §2

velvetleaf [15] = assay: Test A preemergence; type: in vivo, Abutilon theophrasti; conditions: for Velvetleaf plant response rating (0 to 100 scale): 125 g ai/ha; for Velvetleaf plant response rating: 500 g ai/ha, 0 to 100 scale where 0 is no effect and 100 is complete control
Summary of the method: as §2

Heteranthera limosa = assay: Test B flooded paddy test; type: in vivo; conditions: Flood, 250 g ai/ha; 0 to 100 scale where 0 is no effect and 100 is complete control
Summary of the method: as §1

pigweed [16] = assay: Test A preemergence; type: in vivo, Amaranthus retroflexus; conditions: for Pigweed plant response rating (0 to 100 scale): 125 g ai/ha; for Pigweed plant response rating: 500 g ai/ha, 0 to 100 scale where 0 is no effect and 100 is complete control
Summary of the method: as §2

giant foxtail [17] = assay: Test A postemergence; type: in vivo, Setaria faberii; conditions: 0 to 100 scale where 0 is no effect and 100 is complete control; for Foxtail, Giant plant response rating: 125 g ai/ha; for Plant response rating, Foxtail, Giant: 500 g ai/ha
Summary of the method: as §2

Structure (SMILES) | Plant response rating, Rice (rice) | Plant response rating, Barnyardgrass (barnyardgrass [1]) | Wheat plant response rating (0 to 100 scale) (wheat [2]) | Wheat plant response rating (wheat [2]) | Velvetleaf plant response rating (velvetleaf [3]) | Plant response rating, Velvetleaf (velvetleaf [3]) | Plant response rating, Foxtail, Giant (giant foxtail [4]) | Foxtail, Giant plant response rating (giant foxtail [4]) | Morningglory plant response rating (morningglory [5]) | Plant response rating, Morningglory (morningglory [5]) | Barnyardgrass plant response rating (barnyardgrass [6]) | Plant response rating, Barnyardgrass (barnyardgrass [6]) | Plant response rating, Barnyardgrass (barnyardgrass [7]) | Barnyardgrass plant response rating (barnyardgrass [7]) | Plant response rating, Corn (corn [8]) | Corn plant response rating (corn [8]) | Plant response rating, Sedge, Umbrella (sedge, umbrella) | Pigweed plant response rating (pigweed [9]) | Plant response rating, Pigweed (pigweed [9]) | Corn plant response rating (corn [10]) | other results
O=Cc1cccc(Oc2ncc(F)cn2)c1-n1cc(C(F)(F)F)cn1 [Compound 162] | 0 | 0 | 0 | 0 | 10 | 50 | 0 | 0 | 0 | 10 | 0 | 10 | 10 | 50 | 0 | 0 | 40 | 30 | 70 | 0 | Plant response rating, Corn (corn [10]): 10; Crabgrass, Large plant response rating (large (Lg) crabgrass [11]): 0; Plant response rating, Crabgrass, Large (large (Lg) crabgrass [11]): 10; Morningglory plant response rating (0 to 100 scale) (morningglory [12]): 0; Morningglory plant response rating (morningglory [12]): 0; Plant response rating, Crabgrass, Large (large (Lg) crabgrass [13]): 0; Crabgrass, Large plant response rating (large (Lg) crabgrass [13]): 10; Wheat plant response rating (wheat [14]): 0; Plant response rating, Wheat (wheat [14]): 0; Velvetleaf plant response rating (0 to 100 scale) (velvetleaf [15]): 10; Velvetleaf plant response rating (velvetleaf [15]): 50; Plant response rating, Ducksalad (Heteranthera limosa): 35; Pigweed plant response rating (0 to 100 scale) (pigweed [16]): 100; Pigweed plant response rating (pigweed [16]): 100; Foxtail, Giant plant response rating (giant foxtail [17]): 0; Plant response rating, Foxtail, Giant (giant foxtail [17]): 0
N#Cc1cccc(Oc2ncc(Br)cn2)c1-n1cccn1 [Compound 165] | 0 | 0 | 0 | 0 | 10 | 30 | 20 | 90 | 10 | 20 | 0 | 0 | 0 | 20 | 0 | 0 | 0 | 30 | 80 | 0 | Plant response rating, Corn (corn [10]): 0; Crabgrass, Large plant response rating (large (Lg) crabgrass [11]): 0; Plant response rating, Crabgrass, Large (large (Lg) crabgrass [11]): 10; Morningglory plant response rating (0 to 100 scale) (morningglory [12]): 0; Plant response rating, Crabgrass, Large (large (Lg) crabgrass [13]): 50; Crabgrass, Large plant response rating (large (Lg) crabgrass [13]): 90; Wheat plant response rating (wheat [14]): 0; Plant response rating, Wheat (wheat [14]): 0; Velvetleaf plant response rating (0 to 100 scale) (velvetleaf [15]): 10; Velvetleaf plant response rating (velvetleaf [15]): 20; Plant response rating, Ducksalad (Heteranthera limosa): 0; Pigweed plant response rating (0 to 100 scale) (pigweed [16]): 60; Pigweed plant response rating (pigweed [16]): 90; Foxtail, Giant plant response rating (giant foxtail [17]): 10; Plant response rating, Foxtail, Giant (giant foxtail [17]): 20
FC(F)(F)c1cnn(-c2c(Cl)cccc2Oc2ncc(Br)cn2)c1 [Compound 168] | 30 | 0 | 20 | 20 | 90 | 100 | 100 | 100 | 50 | 100 | 50 | 90 | 50 | 80 | 0 | 20 | 80 | 100 | 100 | 20 | Plant response rating, Corn (corn [10]): 30; Crabgrass, Large plant response rating (large (Lg) crabgrass [11]): 70; Plant response rating, Crabgrass, Large (large (Lg) crabgrass [11]): 90; Morningglory plant response rating (0 to 100 scale) (morningglory [12]): 20; Morningglory plant response rating (morningglory [12]): 80; Plant response rating, Crabgrass, Large (large (Lg) crabgrass [13]): 100; Crabgrass, Large plant response rating (large (Lg) crabgrass [13]): 100; Wheat plant response rating (wheat [14]): 10; Plant response rating, Wheat (wheat [14]): 50; Velvetleaf plant response rating (0 to 100 scale) (velvetleaf [15]): 70; Velvetleaf plant response rating (velvetleaf [15]): 90; Plant response rating, Ducksalad (Heteranthera limosa): 90; Pigweed plant response rating (0 to 100 scale) (pigweed [16]): 100; Pigweed plant response rating (pigweed [16]): 100; Foxtail, Giant plant response rating (giant foxtail [17]): 70; Plant response rating, Foxtail, Giant (giant foxtail [17]): 90
O=Cc1cccc(Oc2ncc(Cl)cn2)c1-n1cc(C(F)(F)F)cn1 [Compound 171] | 0 | 0 | 0 | 0 | 40 | 70 | 0 | 0 | 0 | 0 | 0 | 0 | 20 | 60 | 0 | 0 | 0 | 100 | 100 | 0 | Plant response rating, Corn (corn [10]): 0; Crabgrass, Large plant response rating (large (Lg) crabgrass [11]): 0; Plant response rating, Crabgrass, Large (large (Lg) crabgrass [11]): 0; Morningglory plant response rating (0 to 100 scale) (morningglory [12]): 0; Morningglory plant response rating (morningglory [12]): 0; Plant response rating, Crabgrass, Large (large (Lg) crabgrass [13]): 0; Crabgrass, Large plant response rating (large (Lg) crabgrass [13]): 0; Wheat plant response rating (wheat [14]): 0; Plant response rating, Wheat (wheat [14]): 0; Velvetleaf plant response rating (0 to 100 scale) (velvetleaf [15]): 30; Velvetleaf plant response rating (velvetleaf [15]): 70; Plant response rating, Ducksalad (Heteranthera limosa): 0; Pigweed plant response rating (0 to 100 scale) (pigweed [16]): 90; Pigweed plant response rating (pigweed [16]): 100; Foxtail, Giant plant response rating (giant foxtail [17]): 0; Plant response rating, Foxtail, Giant (giant foxtail [17]): 0
FC(F)c1cccc(Oc2ncc(I)cn2)c1-n1cc(Br)cn1 [Compound 173] | 0 | 0 | 0 | 0 | 60 | 70 | 50 | 70 | 0 | 0 | 0 | 30 | 0 | 30 | 0 | 0 | 0 | 100 | 100 | 0 | Plant response rating, Corn (corn [10]): 20; Crabgrass, Large plant response rating (large (Lg) crabgrass [11]): 0; Plant response rating, Crabgrass, Large (large (Lg) crabgrass [11]): 40; Morningglory plant response rating (0 to 100 scale) (morningglory [12]): 0; Morningglory plant response rating (morningglory [12]): 0; Plant response rating, Crabgrass, Large (large (Lg) crabgrass [13]): 20; Crabgrass, Large plant response rating (large (Lg) crabgrass [13]): 80; Wheat plant response rating (wheat [14]): 0; Plant response rating, Wheat (wheat [14]): 0; Velvetleaf plant response rating (0 to 100 scale) (velvetleaf [15]): 0; Velvetleaf plant response rating (velvetleaf [15]): 0; Plant response rating, Ducksalad (Heteranthera limosa): 0; Pigweed plant response rating (0 to 100 scale) (pigweed [16]): 80; Pigweed plant response rating (pigweed [16]): 100; Foxtail, Giant plant response rating (giant foxtail [17]): 10; Plant response rating, Foxtail, Giant (giant foxtail [17]): 50
